# Laboratory results taken from patent US8192962B2, “Processes for detecting toxic substances” (Daikin Industries, Ltd., priority 2001, dated 2012).
# Test system: DNA repair protein genes
# Assay: DNA chip mRNA expression in yeast, DNA repair protein genes (Table 3)
# Type: cell-based, Saccharomyces cerevisiae S288C
# Settings: incubated two hours, concentrations as in the 1st table
# In short: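 Measured as treated-to-untreated fluorescence ratio on a full-genome yeast DNA chip. Cells (S288C, YPD, 25° C.) were exposed in log phase for two hours to one chemical, dosed to curb growth without killing.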
compound,measurement,setting,value
"CCCCCCCCCCCCOS(=O)(=O)[O-].[Na+] [(18), sodium lauryl sulfate]",The level of expressed mRNA in the presence of chemical substance/The level of expressed mRNA in the absence of chemical substance,yeast gene YAL015C,1.2
same,The level of expressed mRNA in the presence of chemical substance/The level of expressed mRNA in the absence of chemical substance,yeast gene YAR007C,1.0
same,The level of expressed mRNA in the presence of chemical substance/The level of expressed mRNA in the absence of chemical substance,yeast gene YBL019W,1.1
same,The level of expressed mRNA in the presence of chemical substance/The level of expressed mRNA in the absence of chemical substance,yeast gene YBR073W,0.8
same,The level of expressed mRNA in the presence of chemical substance/The level of expressed mRNA in the absence of chemical substance,yeast gene YBR272C,1.2
same,The level of expressed mRNA in the presence of chemical substance/The level of expressed mRNA in the absence of chemical substance,yeast gene YCR014C,0.9
same,The level of expressed mRNA in the presence of chemical substance/The level of expressed mRNA in the absence of chemical substance,yeast gene YDL017W,1.0
same,The level of expressed mRNA in the presence of chemical substance/The level of expressed mRNA in the absence of chemical substance,yeast gene YDL059C,0.9
same,The level of expressed mRNA in the presence of chemical substance/The level of expressed mRNA in the absence of chemical substance,yeast gene YDL200C,1.6
same,The level of expressed mRNA in the presence of chemical substance/The level of expressed mRNA in the absence of chemical substance,yeast gene YDR054C,1.4
same,The level of expressed mRNA in the presence of chemical substance/The level of expressed mRNA in the absence of chemical substance,yeast gene YDR369C,0.7
same,The level of expressed mRNA in the presence of chemical substance/The level of expressed mRNA in the absence of chemical substance,yeast gene YEL019C,0.9
same,The level of expressed mRNA in the presence of chemical substance/The level of expressed mRNA in the absence of chemical substance,yeast gene YEL037C,0.8
same,The level of expressed mRNA in the presence of chemical substance/The level of expressed mRNA in the absence of chemical substance,yeast gene YER162C,0.9
same,The level of expressed mRNA in the presence of chemical substance/The level of expressed mRNA in the absence of chemical substance,yeast gene YFL014W,8.8
same,The level of expressed mRNA in the presence of chemical substance/The level of expressed mRNA in the absence of chemical substance,yeast gene YGL058W,0.7
same,The level of expressed mRNA in the presence of chemical substance/The level of expressed mRNA in the absence of chemical substance,yeast gene YGL091C,1.8
same,The level of expressed mRNA in the presence of chemical substance/The level of expressed mRNA in the absence of chemical substance,yeast gene YGL127C,1.2
same,The level of expressed mRNA in the presence of chemical substance/The level of expressed mRNA in the absence of chemical substance,yeast gene YGL163C,0.8
same,The level of expressed mRNA in the presence of chemical substance/The level of expressed mRNA in the absence of chemical substance,yeast gene YGL249W,1.0
same,The level of expressed mRNA in the presence of chemical substance/The level of expressed mRNA in the absence of chemical substance,yeast gene YGR180C,1.9
same,The level of expressed mRNA in the presence of chemical substance/The level of expressed mRNA in the absence of chemical substance,yeast gene YGR231C,1.5
same,The level of expressed mRNA in the presence of chemical substance/The level of expressed mRNA in the absence of chemical substance,yeast gene YGR258C,0.9
same,The level of expressed mRNA in the presence of chemical substance/The level of expressed mRNA in the absence of chemical substance,yeast gene YHR164C,1.0
same,The level of expressed mRNA in the presence of chemical substance/The level of expressed mRNA in the absence of chemical substance,yeast gene YIL036W,1.3
same,The level of expressed mRNA in the presence of chemical substance/The level of expressed mRNA in the absence of chemical substance,yeast gene YIL072W,1.1
same,The level of expressed mRNA in the presence of chemical substance/The level of expressed mRNA in the absence of chemical substance,yeast gene YIL143C,0.9
same,The level of expressed mRNA in the presence of chemical substance/The level of expressed mRNA in the absence of chemical substance,yeast gene YIL153W,0.7
same,The level of expressed mRNA in the presence of chemical substance/The level of expressed mRNA in the absence of chemical substance,yeast gene YIR002C,1.2
same,The level of expressed mRNA in the presence of chemical substance/The level of expressed mRNA in the absence of chemical substance,yeast gene YJL026W,2.1
same,The level of expressed mRNA in the presence of chemical substance/The level of expressed mRNA in the absence of chemical substance,yeast gene YJR046W,0.7
same,The level of expressed mRNA in the presence of chemical substance/The level of expressed mRNA in the absence of chemical substance,yeast gene YJR052W,1.3
same,The level of expressed mRNA in the presence of chemical substance/The level of expressed mRNA in the absence of chemical substance,yeast gene YKL145W,1.5
same,The level of expressed mRNA in the presence of chemical substance/The level of expressed mRNA in the absence of chemical substance,yeast gene YLR103C,1.4
same,The level of expressed mRNA in the presence of chemical substance/The level of expressed mRNA in the absence of chemical substance,yeast gene YLR233C,1.2
same,The level of expressed mRNA in the presence of chemical substance/The level of expressed mRNA in the absence of chemical substance,yeast gene YLR288C,1.3
same,The level of expressed mRNA in the presence of chemical substance/The level of expressed mRNA in the absence of chemical substance,yeast gene YML032C,1.0
same,The level of expressed mRNA in the presence of chemical substance/The level of expressed mRNA in the absence of chemical substance,yeast gene YML058W,1.5
same,The level of expressed mRNA in the presence of chemical substance/The level of expressed mRNA in the absence of chemical substance,yeast gene YMR035W,2.4
same,The level of expressed mRNA in the presence of chemical substance/The level of expressed mRNA in the absence of chemical substance,yeast gene YMR072W,1.9
same,The level of expressed mRNA in the presence of chemical substance/The level of expressed mRNA in the absence of chemical substance,yeast gene YMR096W,1.0
same,The level of expressed mRNA in the presence of chemical substance/The level of expressed mRNA in the absence of chemical substance,yeast gene YMR284W,1.3
same,The level of expressed mRNA in the presence of chemical substance/The level of expressed mRNA in the absence of chemical substance,yeast gene YNL213C,1.2
same,The level of expressed mRNA in the presence of chemical substance/The level of expressed mRNA in the absence of chemical substance,yeast gene YNL250W,1.0
same,The level of expressed mRNA in the presence of chemical substance/The level of expressed mRNA in the absence of chemical substance,yeast gene YNL261W,1.0
same,The level of expressed mRNA in the presence of chemical substance/The level of expressed mRNA in the absence of chemical substance,yeast gene YNL312W,1.1
same,The level of expressed mRNA in the presence of chemical substance/The level of expressed mRNA in the absence of chemical substance,yeast gene YOL043C,1.0
same,The level of expressed mRNA in the presence of chemical substance/The level of expressed mRNA in the absence of chemical substance,yeast gene YOR005C,1.0
same,The level of expressed mRNA in the presence of chemical substance/The level of expressed mRNA in the absence of chemical substance,yeast gene YOR386W,1.7
same,The level of expressed mRNA in the presence of chemical substance/The level of expressed mRNA in the absence of chemical substance,yeast gene YPL022W,0.9
same,The level of expressed mRNA in the presence of chemical substance/The level of expressed mRNA in the absence of chemical substance,yeast gene YPL164C,1.0
same,The level of expressed mRNA in the presence of chemical substance/The level of expressed mRNA in the absence of chemical substance,yeast gene YPL194W,0.8
same,The level of expressed mRNA in the presence of chemical substance/The level of expressed mRNA in the absence of chemical substance,yeast gene YPR025C,1.5
